Results on 53 molecules are retold here after patent US10584104B2, “Carboxylic acid URAT1 inhibitor containing diarylmethane structure, preparation method and use thereof” (TIANJIN INSTITUTE OF PHARMACEUTICAL RESEARCH CO., LTD., priority 2015, dated 2020).

pIC50: −log10 of the molar value. Like-named read-outs stand apart in the source and are kept apart here.

As a reminder, the inhibition is the change of the read-out against control, counted positive when it falls. The term pIC50 denotes the IC50 on a negative log10 scale, so that one unit is a factor of ten. Read a low pIC50 as a large IC50.

The target in assay [1] is T1, URAT1 (Homo sapiens (Human), UniProt Q96S37). Put plainly: Inhibition of [8-14C] uric acid uptake by HEK293 cells stably expressing URAT1, test compounds at 10 μM. It counts as cell-based. As for the experimental part: (I) Inhibitory Experiment of the Test Compounds at a Concentration of 10 μM on URAT1 After trypsin digestion, the expression cells (HEK293) stably expressing URAT1 gene and mock cells were all inoculated into lysine-coated 24-well culture plates, with the cell inoculation density being 1×10^5 cells/well, and cultured in incubator at 37° C., 5% CO2 and saturated humidity for 2 days. […] After 2 min, the reaction was terminated with ice-bathed DPBS buffer solution and washing was carried out for three times. […]
T1 sequence (Q96S37 whole entry): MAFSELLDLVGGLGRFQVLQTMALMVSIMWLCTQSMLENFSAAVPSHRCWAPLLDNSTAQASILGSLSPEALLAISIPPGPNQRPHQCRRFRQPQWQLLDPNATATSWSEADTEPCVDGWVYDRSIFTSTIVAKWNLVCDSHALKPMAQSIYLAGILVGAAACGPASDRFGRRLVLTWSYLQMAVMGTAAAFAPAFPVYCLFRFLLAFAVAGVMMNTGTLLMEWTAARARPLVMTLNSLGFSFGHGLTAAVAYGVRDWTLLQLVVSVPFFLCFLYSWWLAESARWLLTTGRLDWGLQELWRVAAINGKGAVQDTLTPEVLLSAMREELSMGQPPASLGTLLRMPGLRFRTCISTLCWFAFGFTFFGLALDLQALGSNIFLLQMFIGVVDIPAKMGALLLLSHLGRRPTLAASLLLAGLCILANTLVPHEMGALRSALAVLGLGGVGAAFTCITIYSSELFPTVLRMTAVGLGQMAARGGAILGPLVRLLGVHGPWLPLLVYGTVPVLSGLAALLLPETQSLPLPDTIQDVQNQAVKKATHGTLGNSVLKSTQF
wherein, control=the intensity of radioactivity corresponding to the well without the test compound test compound=the intensity of radioactivity corresponding to the well with the test compound mock=the intensity of radioactivity corresponding to the well of blank cells untransfected with URAT1

Assay [2] addresses T1, URAT1. Put plainly: IC50 for inhibition of the test compounds on URAT1 (nine concentration points, 0.001-10 μM). Particulars: HEK293 cells stably expressing URAT1; [8-14C] uric acid uptake; nine concentrations 0.001-10 μM.
Setting [3] is: 10 μM test compound, HEK293 cells stably expressing URAT1, 30 μM [8-14C] uric acid, 2 min, read-out: Inhibition rate (%).
Where [4] appears, read: 10 μM test compound, HEK293 cells stably expressing URAT1, 30 μM [8-14C] uric acid, 2 min.
Setting [5] is: HEK293, read-out: Inhibition rate (%).

For the molecule `CC(C)(Sc1nnc(I)n1Cc1ccc(C2CC2)c2ccccc12)C(=O)O` [Compound of Example 21], at URAT1 [1] (setting [3]), the inhibition at 10 µM came to 82%.
In the case of `CC(C)(Cc1nnc(Br)n1Cc1ccc(C2CC2)c2ccccc12)C(=O)O` [Compound of Example 41], the inhibition at 10 µM at URAT1 [1] (setting [3]) amounted to 94%.
Regarding `N#Cc1ccc(Cn2c(Br)nnc2CCC(=O)O)c2ccccc12` [Compound of Example 40], the inhibition at 10 µM on URAT1 [1] (setting [3]) came to 92%.
`O=C(O)CCc1nnc(Br)n1Cc1ccc(C2CC2)c2ccccc12` [Compound of Example 2] showed a pIC50 against URAT1 [2] of 6.71. Also, the “Inhibition rate (%)” value at URAT1 [1] (setting [4]) was 91%.
`Cc1ccc(Cn2c(Br)nnc2SCC(=O)O)c2ccccc12` [Compound of Example 8]: at URAT1 [1] (setting [3]), the inhibition at 10 µM stood at 83%.
The molecule `CC(C)(Sc1nnc(Cl)n1Cc1ccc(C2CC2)c2ccccc12)C(=O)O` [Compound of Example 20] showed a pIC50 on URAT1 [2] of 6.05. Also, the inhibition at 10 µM at URAT1 [1] (setting [3]) was determined as 86%.
On to `O=C(O)CSc1nnc(Br)n1Cc1cccc2ccccc12` [Compound of Example 7], for which, at URAT1 [1] (setting [3]), the inhibition at 10 µM is 83%.
For the molecule `COc1ccc(Cn2c(Br)nnc2SCC(=O)O)c2ccccc12` [Compound of Example 16], on URAT1 [1] (setting [3]), the inhibition at 10 µM stood at 81%.
On the same count and under the same terms, the figure for `O=C(O)CCc1nnc(I)n1Cc1ccc(C2CC2)c2ccccc12` [Compound of Example 35] is 84%; for `CCc1ccc(Cn2c(Br)nnc2CC(C)(C)C(=O)O)c2ccccc12` [Compound of Example 47] it is 85%; for `CC(C)(Sc1nncn1Cc1ccc(C2CC2)c2ccccc12)C(=O)O` [Compound of Example 18] it is 78%.
The same measure, in the same setting: then `Cc1ccc(Cn2c(Br)nnc2CCC(=O)O)c2ccccc12` [Compound of Example 36], with 82%; and `Cc1ccc(Cn2c(Br)nnc2CC(C)(C)C(=O)O)c2ccccc12` [Compound of Example 46], with 84%.
As to `O=C(O)CSc1nncn1Cc1ccc(C2CC2)c2ccccc12` [Compound of Example 3], the inhibition at 10 µM at URAT1 [1] (setting [3]) is 60%.
Take `CCCc1ccc(Cn2c(Br)nnc2SC(C)(C)C(=O)O)c2ccccc12` [Compound of Example 25]: the pIC50 at URAT1 [2] is 6.00. The inhibition at 10 µM at URAT1 [1] (setting [3]) is 80%.
With `CCc1ccc(Cn2c(Br)nnc2SC(C)(C)C(=O)O)c2ccccc12` [Compound of Example 24], the inhibition at 10 µM at URAT1 [1] (setting [3]) was 84%.
For the molecule `CC(C)c1ccc(Cn2c(Br)nnc2CC(C)(C)C(=O)O)c2ccccc12` [Compound of Example 49], on URAT1 [2], the pIC50 is 6.31. For the same molecule, the inhibition at 10 µM on URAT1 [1] (setting [3]) was found to be 93%.
Consider `CCCc1ccc(Cn2c(Br)nnc2CCC(=O)O)c2ccccc12` [Compound of Example 38], for which, on URAT1 [2], the pIC50 is 6.97. Besides, the inhibition at 10 µM at URAT1 [1] (setting [3]) amounted to 86%.
Take `CC(C)(Cc1nncn1Cc1ccc(C2CC2)c2ccccc12)C(=O)O` [Compound of Example 42]: at URAT1 [1] (setting [3]), the inhibition at 10 µM was 71%.
Same read-out and setting: the figure for `COc1ccc(Cn2c(Br)nnc2SC(C)(C)C(=O)O)c2ccccc12` [Compound of Example 31] is 84%; for `CC(C)(Cc1nnc(Br)n1Cc1ccc(C#N)c2ccccc12)C(=O)O` [Compound of Example 50] it is 92%.
In the case of `CCCc1ccc(Cn2c(Br)nnc2SCC(=O)O)c2ccccc12` [Compound of Example 10], on URAT1 [2], the pIC50 was 7.03. Also, at URAT1 [1] (setting [3]), the inhibition at 10 µM was 85%.
With `CC(C)(Sc1nnc(Br)n1Cc1ccc(C2CC2)c2ccccc12)C(=O)O` [Compound of Example 17], on URAT1 [2], the pIC50 is 5.99. The inhibition at 10 µM on URAT1 [1] (setting [3]) is 93%.
On to `N#Cc1ccc(Cn2c(Br)nnc2SCC(=O)O)c2ccccc12` [Compound of Example 14], for which, on URAT1 [1] (setting [3]), the inhibition at 10 µM stood at 84%.
Turning to `O=C(O)CSc1nnc(Br)n1Cc1ccc(F)c2ccccc12` [Compound of Example 12], the inhibition at 10 µM at URAT1 [1] (setting [3]) turned out to be 76%.
Still for that read-out and setting: the figure for `O=C(O)CSc1nnc(F)n1Cc1ccc(C2CC2)c2ccccc12` [Compound of Example 4] is 62%; for `CC(C)(Sc1nnc(F)n1Cc1ccc(C2CC2)c2ccccc12)C(=O)O` [Compound of Example 19] it is 82%; for `CC(C)c1ccc(Cn2c(Br)nnc2SC(C)(C)C(=O)O)c2ccccc12` [Compound of Example 26] it is 91%.
Regarding `O=C(O)CCc1nnc(Br)n1Cc1ccc(Br)c2ccccc12` [Compound of Example 52], the pIC50 against URAT1 [2] was 7.08. Also, the inhibition at 10 µM on URAT1 [1] (setting [3]) was determined as 93%.
In the case of `CC(C)(Cc1nnc(I)n1Cc1ccc(C2CC2)c2ccccc12)C(=O)O` [Compound of Example 45], at URAT1 [1] (setting [3]), the inhibition at 10 µM was found to be 82%.
For the molecule `O=C(O)CSc1nnc(Cl)n1Cc1ccc(C2CC2)c2ccccc12` [Compound of Example 5], the pIC50 against URAT1 [2] was 6.38. Besides, the inhibition at 10 µM on URAT1 [1] (setting [3]) worked out at 76%.
`CCc1ccc(Cn2c(Br)nnc2CCC(=O)O)c2ccccc12` [Compound of Example 37]: at URAT1 [1] (setting [3]), the inhibition at 10 µM is 84%.
Regarding `O=C(O)CCc1nnc(Cl)n1Cc1ccc(C2CC2)c2ccccc12` [Compound of Example 34], the inhibition at 10 µM on URAT1 [1] (setting [3]) turned out to be 88%.
Consider `O=C(O)CSc1nnc(Br)n1Cc1ccc(C2CC2)c2ccccc12` [Compound of Example 1], for which the pIC50 against URAT1 [2] was 6.70. Besides, the “Inhibition rate (%)” value on URAT1 [1] (setting [4]) turned out to be 90%.
With `CCCc1ccc(Cn2c(Br)nnc2CC(C)(C)C(=O)O)c2ccccc12` [Compound of Example 48], the pIC50 on URAT1 [2] was 6.29. Also, the inhibition at 10 µM on URAT1 [1] (setting [3]) is 85%.
In the same order, the values of `CC(C)c1ccc(Cn2c(Br)nnc2SCC(=O)O)c2ccccc12` [Compound of Example 11] are 6.32 and 91%.
In the case of `CC(C)(Cc1nnc(F)n1Cc1ccc(C2CC2)c2ccccc12)C(=O)O` [Compound of Example 43], the inhibition at 10 µM on URAT1 [1] (setting [3]) amounted to 80%.
As for `CC(C)(Sc1nnc(Br)n1-c1ccc(C2CC2)c2ccccc12)C(=O)O` [Compound A, reference compound], the inhibition at 10 µM at URAT1 [1] (setting [5]) worked out at 55%.
Consider `O=C(O)CCc1nnc(F)n1Cc1ccc(C2CC2)c2ccccc12` [Compound of Example 33], for which the inhibition at 10 µM on URAT1 [1] (setting [3]) stood at 68%.
Regarding `O=C(O)CCc1nnc(Br)n1-c1ccc(C2CC2)c2ccccc12` [Compound B, reference compound], the inhibition at 10 µM on URAT1 [1] (setting [5]) worked out at 50%.
Take `CC(C)(Sc1nnc(Br)n1Cc1ccc(F)c2ccccc12)C(=O)O` [Compound of Example 27]: at URAT1 [1] (setting [3]), the inhibition at 10 µM came to 83%.
The same measure, in the same setting: the figure for `CCc1ccc(Cn2c(Br)nnc2SCC(=O)O)c2ccccc12` [Compound of Example 9] is 84%; for `CC(C)(Cc1nnc(Cl)n1Cc1ccc(C2CC2)c2ccccc12)C(=O)O` [Compound of Example 44] it is 81%; for `Cc1ccc(Cn2c(Br)nnc2SC(C)(C)C(=O)O)c2ccccc12` [Compound of Example 23] it is 83%.
Same read-out and setting: then `O=C(O)CSc1nnc(Br)n1Cc1ccc([N+](=O)[O-])c2ccccc12` [Compound of Example 15], with 70%; and `CC(C)(Sc1nnc(Br)n1Cc1cccc2ccccc12)C(=O)O` [Compound of Example 22], with 77%.
The same measure, in the same setting: the figure for `O=C(O)CSc1nnc(Br)n1Cc1ccc(Cl)c2ccccc12` [Compound of Example 13] is 75%.
Consider `CC(C)(Sc1nnc(Br)n1Cc1ccc(C#N)c2ccccc12)C(=O)O` [Compound of Example 29], for which the inhibition at 10 µM on URAT1 [1] (setting [3]) is 89%.
For `CC(C)(Sc1nnc(Br)n1Cc1ccc(Cl)c2ccccc12)C(=O)O` [Compound of Example 28], at URAT1 [1] (setting [3]), the inhibition at 10 µM was 77%.
On to `O=C(O)CCc1nncn1Cc1ccc(C2CC2)c2ccccc12` [Compound of Example 32], for which the inhibition at 10 µM on URAT1 [1] (setting [3]) is 67%.
Molecule `O=C(O)CSc1nnc(I)n1Cc1ccc(C2CC2)c2ccccc12` [Compound of Example 6] showed a pIC50 at URAT1 [2] of 6.36. The inhibition at 10 µM at URAT1 [1] (setting [3]) stood at 78%.
`CC(C)c1ccc(Cn2c(Br)nnc2CCC(=O)O)c2ccccc12` [Compound of Example 39] had a pIC50 on URAT1 [2] of 6.42. Further, the inhibition at 10 µM at URAT1 [1] (setting [3]) was found to be 92%.
Turning to `CC(C)(Sc1nnc(Br)n1Cc1ccc([N+](=O)[O-])c2ccccc12)C(=O)O` [Compound of Example 30], the inhibition at 10 µM at URAT1 [1] (setting [3]) worked out at 81%.
